Test results taken from PubChem BioAssay AID1845200 (Molecular Pharmacology Branch, DTP, NCI, 2023).
Values joined by “and” are separate entries in the source; they are usually repeats but may differ in a detail not shown here. Identical values can stand only once. Active and inactive are the calls of the source. How the source made its calls: active means viability on the fitted dose curve at most 10% of control; inactive means the rest.

System: ASPS-1 complex tumor spheroids, viability
Experiment: Anticancer human tumor ASPS-1 cell line growth inhibition;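 further: spheroids exposed to agents for 7 days after 3 days of growth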;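 on viability, T/C: 100% = DMSO vehicle treated spheroids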
Conditions: for viability, T/C: stronger effect = lower value
In short: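 Complex spheroids of malignant cells with endothelial cells and mesenchymal stem cells; agents alone or combined, from near clinical Cmax (or 10 microM if unknown) down in half-log steps, 0.25% DMSO final.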

[1] = curve of first compound, second compound 30 pM
[2] = curve of first compound, second compound 94.9 pM
[3] = curve of first compound, second compound 0.0003 µM
[4] = curve of first compound, second compound 0.000949 µM
[5] = curve of first compound, second compound 0.003 µM
[6] = second compound 0.003 µM, first compound 0.0316 µM
[7] = second compound 0.003 µM, first compound 0.1 µM
[8] = second compound 0.003 µM, first compound 0.316 µM
[9] = second compound 0.003 µM, first compound 1 µM
[10] = second compound 0.003 µM, first compound 3.16 µM
[11] = second compound 0.003 µM, first compound 10 µM

O=C(c1cc(Cc2n[nH]c(=O)c3ccccc23)ccc1F)N1CCN(C(=O)C2CC2)CC1 + COc1cc2c(cc1O)CCNC21CSC2c3c(OC(C)=O)c(C)c4c(c3C(COC1=O)N1C(O)C3Cc5cc(C)c(OC)c(O)c5C(C21)N3C)OCO4
active: viability, T/C (second compound 0.000949 µM, first compound 30 µM) 4.17% | viability, T/C (second compound 0.003 µM, first compound 9.49 µM) 3.59% | viability, T/C (second compound 0.003 µM, first compound 30 µM) 1.41%
13000 nM: IC50 [3]
< 94.9 nM: IC50 [5]
2080 nM: IC50 [4]
22100 nM: IC50 [2]
inactive: viability, T/C (second compound 30 pM, first compound 0.0949 µM) 114% | viability, T/C (second compound 30 pM, first compound 0.3 µM) 112% | viability, T/C (second compound 30 pM, first compound 0.949 µM) 105% | viability, T/C (second compound 30 pM, first compound 3 µM) 107% | viability, T/C (second compound 30 pM, first compound 9.49 µM) 106% | viability, T/C (second compound 30 pM, first compound 30 µM) 42.2% | viability, T/C (second compound 94.9 pM, first compound 0.0949 µM) 103% | viability, T/C (second compound 94.9 pM, first compound 0.3 µM) 103% | viability, T/C (second compound 94.9 pM, first compound 0.949 µM) 108% | viability, T/C (second compound 94.9 pM, first compound 3 µM) 101% | viability, T/C (second compound 94.9 pM, first compound 9.49 µM) 98.6% | viability, T/C (second compound 94.9 pM, first compound 30 µM) 32.5% | viability, T/C (second compound 0.0003 µM, first compound 0.0949 µM) 97.8% | viability, T/C (second compound 0.0003 µM, first compound 0.3 µM) 106% | viability, T/C (second compound 0.0003 µM, first compound 0.949 µM) 102% | viability, T/C (second compound 0.0003 µM, first compound 3 µM) 98.5% | viability, T/C (second compound 0.0003 µM, first compound 9.49 µM) 60.3% | viability, T/C (second compound 0.0003 µM, first compound 30 µM) 22.9% | viability, T/C (second compound 0.000949 µM, first compound 0.0949 µM) 73% | viability, T/C (second compound 0.000949 µM, first compound 0.3 µM) 75.1% | viability, T/C (second compound 0.000949 µM, first compound 0.949 µM) 59.5% | viability, T/C (second compound 0.000949 µM, first compound 3 µM) 45.3% | viability, T/C (second compound 0.000949 µM, first compound 9.49 µM) 21.5% | viability, T/C (second compound 0.003 µM, first compound 0.0949 µM) 21.6% | viability, T/C (second compound 0.003 µM, first compound 0.3 µM) 22.4% | viability, T/C (second compound 0.003 µM, first compound 0.949 µM) 17.4% | viability, T/C (second compound 0.003 µM, first compound 3 µM) 12.7%
26000 nM: IC50 [1]

CC1COCCN1c1cc(-c2ccnn2C)c2ccnc(-c3ccn[nH]3)c2n1 (centres undefined) + COc1cc2c(cc1O)CCNC21CSC2c3c(OC(C)=O)c(C)c4c(c3C(COC1=O)N1C(O)C3Cc5cc(C)c(OC)c(O)c5C(C21)N3C)OCO4
156 nM: IC50 [1]
102 nM: IC50 [2]
inactive: viability, T/C (second compound 30 pM, first compound 0.0316 µM) 81.9% | viability, T/C (second compound 30 pM, first compound 0.1 µM) 53.9% | viability, T/C (second compound 30 pM, first compound 0.316 µM) 43.1% | viability, T/C (second compound 30 pM, first compound 1 µM) 42.9% | viability, T/C (second compound 30 pM, first compound 3.16 µM) 40.7% | viability, T/C (second compound 30 pM, first compound 10 µM) 38.9% | viability, T/C (second compound 94.9 pM, first compound 0.0316 µM) 71.7% | viability, T/C (second compound 94.9 pM, first compound 0.1 µM) 50.1% | viability, T/C (second compound 94.9 pM, first compound 0.316 µM) 37.5% | viability, T/C (second compound 94.9 pM, first compound 1 µM) 38.5% | viability, T/C (second compound 94.9 pM, first compound 3.16 µM) 40.6% | viability, T/C (second compound 94.9 pM, first compound 10 µM) 41% | viability, T/C (second compound 0.0003 µM, first compound 0.0316 µM) 46.4% | viability, T/C (second compound 0.0003 µM, first compound 0.1 µM) 37% | viability, T/C (second compound 0.0003 µM, first compound 0.316 µM) 32% | viability, T/C (second compound 0.0003 µM, first compound 1 µM) 30.1% | viability, T/C (second compound 0.0003 µM, first compound 3.16 µM) 43% | viability, T/C (second compound 0.0003 µM, first compound 10 µM) 38.3% | viability, T/C (second compound 0.000949 µM, first compound 0.0316 µM) 27.4% | viability, T/C (second compound 0.000949 µM, first compound 0.1 µM) 25% | viability, T/C (second compound 0.000949 µM, first compound 0.316 µM) 21.3% | viability, T/C (second compound 0.000949 µM, first compound 1 µM) 25.9% | viability, T/C (second compound 0.000949 µM, first compound 3.16 µM) 18.1% | viability, T/C (second compound 0.000949 µM, first compound 10 µM) 13.9% | viability, T/C [6] 11.5%
< 31.6 nM: IC50 [3] | IC50 [4] | IC50 [5]
active: viability, T/C [7] 10.2% | viability, T/C [8] 8.78% | viability, T/C [9] 5.28% | viability, T/C [10] 0.36% | viability, T/C [11] 0.46%

Cc1cc(C)c(CNC(=O)c2cc(-c3ccc(CN4CCOCC4)cc3)cc3c2cnn3C2CCCC2)c(=O)[nH]1 + CC[C@@]1(O)C(=O)OCc2c1cc1n(c2=O)Cc2cc3c(CN(C)C)c(O)ccc3nc2-1
777 nM: IC50 (curve of first compound, second compound 0.0949 µM)
< 31.6 nM: IC50 (curve of first compound, second compound 0.3 µM)
> 10000 nM: IC50 [5] | IC50 (curve of first compound, second compound 0.00949 µM) | IC50 (curve of first compound, second compound 0.03 µM)
inactive: viability, T/C [6] 100% | viability, T/C [7] 106% | viability, T/C [8] 94.2% | viability, T/C [9] 93.7% | viability, T/C [10] 85.2% | viability, T/C [11] 81.2% | viability, T/C (second compound 0.00949 µM, first compound 0.0316 µM) 107% | viability, T/C (second compound 0.00949 µM, first compound 0.1 µM) 114% | viability, T/C (second compound 0.00949 µM, first compound 0.316 µM) 107% | viability, T/C (second compound 0.00949 µM, first compound 1 µM) 95.2% | viability, T/C (second compound 0.00949 µM, first compound 3.16 µM) 87.2% | viability, T/C (second compound 0.00949 µM, first compound 10 µM) 77.8% | viability, T/C (second compound 0.03 µM, first compound 0.0316 µM) 95.8% | viability, T/C (second compound 0.03 µM, first compound 0.1 µM) 98.7% | viability, T/C (second compound 0.03 µM, first compound 0.316 µM) 89.9% | viability, T/C (second compound 0.03 µM, first compound 1 µM) 79.9% | viability, T/C (second compound 0.03 µM, first compound 3.16 µM) 66% | viability, T/C (second compound 0.03 µM, first compound 10 µM) 74% | viability, T/C (second compound 0.0949 µM, first compound 0.0316 µM) 59% | viability, T/C (second compound 0.0949 µM, first compound 0.1 µM) 55.3% | viability, T/C (second compound 0.0949 µM, first compound 0.316 µM) 52.3% | viability, T/C (second compound 0.0949 µM, first compound 1 µM) 46.2% | viability, T/C (second compound 0.0949 µM, first compound 3.16 µM) 46.5% | viability, T/C (second compound 0.0949 µM, first compound 10 µM) 52.8% | viability, T/C (second compound 0.3 µM, first compound 0.0316 µM) 49.5% | viability, T/C (second compound 0.3 µM, first compound 0.1 µM) 47% | viability, T/C (second compound 0.3 µM, first compound 0.316 µM) 44.4% | viability, T/C (second compound 0.3 µM, first compound 1 µM) 45.6% | viability, T/C (second compound 0.3 µM, first compound 3.16 µM) 46.4% | viability, T/C (second compound 0.3 µM, first compound 10 µM) 56.9%

[2H]c1nc(C)nc([2H])c1-c1cc(NC[C@@H](C)c2cccc3c(C(=O)NC)ccnc23)ncn1
inactive: viability, T/C (compound 0.0316 µM) 107% and 101% and 102% | outcome (compound 0.1 µM) | viability, T/C (compound 0.1 µM) 108% and 104% | outcome (compound 0.316 µM) | viability, T/C (compound 0.316 µM) 108% and 104% | viability, T/C (compound 1 µM) 106% and 113% and 95.1% | viability, T/C (compound 3.16 µM) 103% and 107% and 100% | viability, T/C (compound 10 µM) 97.9% and 101% and 95.2%
> 10000 nM: IC50 (curve of compound)
